Two compounds from patent publication US20070092576A1, “Compositions containing opioid antagonists” (Adolor Corporation, priority 2005, published 2007) can be followed below.

One series concerns analgesia. Description: Propensity for reversing analgesia after oral administration. It is filed as in vivo. Conditions: administered orally; compared with alvimopan.
Series [1] in a line: Solubility of the drug substance. The series is classed as physicochemical. Conditions: for solubility in water: dihydrate.

Take `C[C@H]1CN(C[C@H](Cc2ccccc2)C(=O)O)CC[C@@]1(C)c1cccc(O)c1` [(3R, 4R, S)-Q-CH2CH(CH2(C6H5))C(O)OH, (αS,3R,4R)-4-(3-hydroxyphenyl)-3,4-dimethyl-α-(phenylmethyl)-1-piperidinepropanoic acid monohydrate]: the “propensity for reversing analgesia” value with analgesia was “much greater propensity for undesirably reversing analgesia than alvimopan”.
As for `C[C@H]1CN(C[C@H](Cc2ccccc2)C(=O)NCC(=O)O)CC[C@@]1(C)c1cccc(O)c1` [Alvimopan, [[2(S)-[[4(R)-(3-hydroxyphenyl)-3(R),4-dimethyl-1-piperidinyl]methyl]-1-oxo-3-phenylpropyl]amino]acetic acid dihydrate], the “solubility as a function of pH” value in series [1] (acid pH versus basic pH) was “more soluble at an acid pH than a basic pH”. The solubility in water entry is “extremely low solubility in water” in series [1] and “low solubility in water except at low or high pH conditions” in series [1] (listed as compound of formula (II)).
